Values joined by “and” are separate entries in the source; they are usually repeats but may differ in a detail not shown here. Equal entries are not always repeated. Toxic doses and inconclusive results are not listed. No stated cut-off is given here; in the data, active means T/C of 150% or more; inactive means T/C below 125%.
System: L1210 leukemia ip in BDF1 mice, survival T/C
Experiment: NCI In Vivo Anticancer Drug Screen. Data for tumor model L1210 Leukemia (intraperitoneal) in B6D2F1 (BDF1) mice
Conditions: endpoint: mean survival time, higher = longer survival
Method in brief: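 Tumor was transplanted into mice, which were then dosed with test compound or vehicle alone. Survival was recorded for each group, and the treated figure was expressed relative to the control figure.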

[1] = dose: 100.0 mg/kg/injection, schedule: Q01DX001 (ip), vehicle: carboxymethylcellulose (CMC)
[2] = dose: 100.0 mg/kg/injection, schedule: Q04DX002 (ip), vehicle: carboxymethylcellulose (CMC)
[3] = dose: 100.0 mg/kg/injection, schedule: Q04DX003 (ip), vehicle: carboxymethylcellulose (CMC)
[4] = dose: 200.0 mg/kg/injection, schedule: Q01DX001 (ip), vehicle: carboxymethylcellulose (CMC)
[5] = dose: 200.0 mg/kg/injection, schedule: Q04DX002 (ip), vehicle: carboxymethylcellulose (CMC)
[6] = dose: 200.0 mg/kg/injection, schedule: Q04DX003 (ip), vehicle: carboxymethylcellulose (CMC)
[7] = dose: 400.0 mg/kg/injection, schedule: Q01DX001 (ip), vehicle: carboxymethylcellulose (CMC)
[8] = dose: 400.0 mg/kg/injection, schedule: Q01DX009 (ip), vehicle: carboxymethylcellulose (CMC)
[9] = dose: 400.0 mg/kg/injection, schedule: Q04DX002 (ip), vehicle: carboxymethylcellulose (CMC)
[10] = dose: 400.0 mg/kg/injection, schedule: Q04DX003 (ip), vehicle: carboxymethylcellulose (CMC)
[11] = dose: 100.0 mg/kg/injection, schedule: Q01DX001 (ip), vehicle: saline
[12] = dose: 200.0 mg/kg/injection, schedule: Q01DX001 (ip), vehicle: saline
[13] = dose: 400.0 mg/kg/injection, schedule: Q01DX001 (ip), vehicle: saline

Measured: T/C

O=C(Cn1ccc(=O)[nH]c1=O)c1ccc(Cl)s1
inactive: dose: 100.0 mg/kg/injection, schedule: Q01DX009 (ip), vehicle: saline with Tween-80 100 % of control | dose: 100.0 mg/kg/injection, schedule: Q04DX003 (ip), vehicle: saline with Tween-80 96 % of control | dose: 200.0 mg/kg/injection, schedule: Q01DX009 (ip), vehicle: saline with Tween-80 97 % of control | dose: 200.0 mg/kg/injection, schedule: Q04DX003 (ip), vehicle: saline with Tween-80 98 % of control | dose: 400.0 mg/kg/injection, schedule: Q01DX009 (ip), vehicle: saline with Tween-80 91 % of control | dose: 400.0 mg/kg/injection, schedule: Q04DX003 (ip), vehicle: saline with Tween-80 104 % of control

CC(=O)Cc1ccc(Cl)cc1
inactive: dose: 100.0 mg/kg/injection, schedule: Q04DX002 (ip), vehicle: saline 92 % of control | dose: 200.0 mg/kg/injection, schedule: Q04DX002 (ip), vehicle: saline 95 % of control | dose: 400.0 mg/kg/injection, schedule: Q04DX002 (ip), vehicle: saline 99 % of control

Cc1cccc(C)c1NC(=O)C(Cl)Cl
inactive: dose: 50.0 mg/kg/injection, schedule: Q01DX Z (ip), vehicle: methylcellulose (MC) 109 % of control | dose: 73.0 mg/kg/injection, schedule: Q01DX Z (ip), vehicle: methylcellulose (MC) 107 % of control | dose: 112.0 mg/kg/injection, schedule: Q01DX Z (ip), vehicle: methylcellulose (MC) 101 % of control | dose: 168.0 mg/kg/injection, schedule: Q01DX Z (ip), vehicle: methylcellulose (MC) 101 % of control

O=[N+]([O-])c1cc(C(F)(F)F)cc([N+](=O)[O-])c1N/N=C/c1ccc(Cl)cc1
inactive: dose: 12.5 mg/kg/injection, schedule: Q01DX009 (ip), vehicle: carboxymethylcellulose (CMC) 95 % of control and 102 % of control | dose: 25.0 mg/kg/injection, schedule: Q01DX009 (ip), vehicle: carboxymethylcellulose (CMC) 97 % of control and 88 % of control | [1] 100 % of control and 103 % of control | [2] 100 % of control and 105 % of control | [3] 92 % of control and 101 % of control | [4] 103 % of control and 91 % of control | [5] 98 % of control and 90 % of control | [6] 94 % of control and 96 % of control | [7] 103 % of control and 105 % of control | [8] 86 % of control and 90 % of control | [9] 86 % of control and 87 % of control | [10] 92 % of control and 96 % of control

CCOC(=O)OCCc1ccccc1
inactive: [1] 106 % of control | dose: 100.0 mg/kg/injection, schedule: Q01DX009 (ip), vehicle: carboxymethylcellulose (CMC) 103 % of control and 92 % of control | [2] 97 % of control and 109 % of control | [3] 98 % of control | [4] 100 % of control | dose: 200.0 mg/kg/injection, schedule: Q01DX009 (ip), vehicle: carboxymethylcellulose (CMC) 95 % of control and 103 % of control | [5] 98 % of control and 100 % of control | [6] 98 % of control | [7] 105 % of control | [8] 93 % of control and 98 % of control | [9] 97 % of control and 106 % of control | [10] 102 % of control

CCOC(=O)C(C(C)=O)C(c1ccc(O)cc1)C(C(C)=O)C(=O)OCC (stereo not given)
inactive: [11] 93 % of control | [12] 86 % of control | [13] 87 % of control

CC(C)S.[Pb]
inactive: dose: 100.0 mg/kg/injection, schedule: Q04DX002 (ip), vehicle: gum acacia 100 % of control | dose: 200.0 mg/kg/injection, schedule: Q04DX002 (ip), vehicle: gum acacia 100 % of control | dose: 400.0 mg/kg/injection, schedule: Q04DX002 (ip), vehicle: gum acacia 89 % of control

COc1cc2c(cc1OC)C13CCN4CC5=CCOC6CC(=O)N2C1C6C5CC43 (stereo not given)
inactive: dose: 9.5 mg/kg/injection, schedule: Q01DX001 (ip), vehicle: other 103 % of control | dose: 19.0 mg/kg/injection, schedule: Q01DX001 (ip), vehicle: other 103 % of control | dose: 25.0 mg/kg/injection, schedule: Q01DX015 (ip), vehicle: saline 101 % of control | dose: 38.0 mg/kg/injection, schedule: Q01DX001 (ip), vehicle: other 97 % of control | dose: 50.0 mg/kg/injection, schedule: Q01DX015 (ip), vehicle: saline 100 % of control | dose: 100.0 mg/kg/injection, schedule: Q01DX015 (ip), vehicle: saline 91 % of control

O=C1NC(=O)C2C3C=CC(O3)C12 (stereo not given)
inactive: dose: 100.0 mg/kg/injection, schedule: Q01DX009 (ip), vehicle: saline 106 % of control | dose: 200.0 mg/kg/injection, schedule: Q01DX009 (ip), vehicle: saline 95 % of control | dose: 400.0 mg/kg/injection, schedule: Q01DX009 (ip), vehicle: saline 97 % of control

CCOC(=O)Cc1nc2ccccc2[nH]c1=O
inactive: dose: 50.0 mg/kg/injection, schedule: Q04DX002 (ip), vehicle: Klucel (hydroxypropylcellulose) (HPC) 107 % of control | dose: 100.0 mg/kg/injection, schedule: Q04DX002 (ip), vehicle: Klucel (hydroxypropylcellulose) (HPC) 96 % of control | dose: 200.0 mg/kg/injection, schedule: Q04DX002 (ip), vehicle: Klucel (hydroxypropylcellulose) (HPC) 96 % of control

O=C(Nc1ccc(Cl)cc1)c1cccc([N+](=O)[O-])c1O
inactive: dose: 6.25 mg/kg/injection, schedule: Q01DX009 (ip), vehicle: Klucel (hydroxypropylcellulose) (HPC) 102 % of control | dose: 12.5 mg/kg/injection, schedule: Q01DX009 (ip), vehicle: Klucel (hydroxypropylcellulose) (HPC) 106 % of control | dose: 25.0 mg/kg/injection, schedule: Q01DX009 (ip), vehicle: Klucel (hydroxypropylcellulose) (HPC) 95 % of control

CN(C)c1nn[nH]n1
inactive: dose: 100.0 mg/kg/injection, schedule: Q04DX003 (ip), vehicle: Klucel (hydroxypropylcellulose) (HPC) 95 % of control | dose: 200.0 mg/kg/injection, schedule: Q04DX003 (ip), vehicle: Klucel (hydroxypropylcellulose) (HPC) 88 % of control | dose: 400.0 mg/kg/injection, schedule: Q04DX003 (ip), vehicle: Klucel (hydroxypropylcellulose) (HPC) 95 % of control

CCc1nc(N)nc(N)c1-c1ccc(Cl)cc1
inactive: dose: 22.0 mg/kg/injection, schedule: Q01DX Z (ip), vehicle: carboxymethylcellulose (CMC) 120 % of control | dose: 25.0 mg/kg/injection, schedule: Q01DX015 (ip), vehicle: carboxymethylcellulose (CMC) 110 % of control | dose: 35.0 mg/kg/injection, schedule: Q01DX Z (ip), vehicle: carboxymethylcellulose (CMC) 118 % of control | dose: 50.0 mg/kg/injection, schedule: Q01DX015 (ip), vehicle: carboxymethylcellulose (CMC) 116 % of control | dose: 75.0 mg/kg/injection, schedule: Q01DX Z (ip), vehicle: carboxymethylcellulose (CMC) 91 % of control | dose: 200.0 mg/kg/injection, schedule: Q01DX015 (ip), vehicle: carboxymethylcellulose (CMC) 104 % of control

NC(=O)OCC(O)COc1ccc(Cl)cc1 (stereo not given)
inactive: [11] 95 % of control | [12] 97 % of control | [13] 95 % of control

O=C(Nc1cc(Cl)ccc1Oc1cc(Cl)c(Cl)cc1S(=O)(=O)O)Nc1cc(Cl)ccc1Oc1cc(Cl)c(Cl)cc1S(=O)(=O)O
inactive: dose: 18.75 mg/kg/injection, schedule: Q01DX009 (ip), vehicle: saline 97 % of control | dose: 37.5 mg/kg/injection, schedule: Q01DX009 (ip), vehicle: saline 90 % of control | dose: 75.0 mg/kg/injection, schedule: Q01DX001 (ip), vehicle: saline 106 % of control | dose: 75.0 mg/kg/injection, schedule: Q01DX009 (ip), vehicle: saline 94 % of control | dose: 150.0 mg/kg/injection, schedule: Q01DX001 (ip), vehicle: saline 97 % of control

Reference: PubChem BioAssay AID248 (DTP/NCI, 2004)
